Data reported in patent US20260042764A1, “COMPOSITIONS AND METHODS FOR INHIBITION OF KRAS” (TheRas, Inc., priority 2022, published 2026).
pIC50: −log10 of the molar value.

Tests used:
[1] = target: T1, Avi-KRAS G12R (1-169) GppNHp/RAF1 RBD-3xFLAG (52-151) (Homo sapiens, UniProt P01116, G12R); test: Raf1-KRAS G12R-GppNHP disruption HTRF assay (Biological Example 1); format: binding
T1 construct: Avi-KRAS G12R (1-169)
Summary of the method: (§1)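 Using HTRF, the loss of KRAS–effector RAF1 complex was quantified in 50 mM Tris pH 7.5 buffer with 100 mM NaCl and 0.1% BSA. The protein step and reagent step ran 1 h each at room temperature. Activity normalized with DMSO taken as 100%.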

[2] = target: T2, Avi-KRAS G12D (1-169) GppNHp/RAF1 RBD-3xFLAG (52-151) (Homo sapiens, UniProt P01116, G12D); test: Raf1-KRAS G12D-GppNHP disruption HTRF assay (Biological Example 1); format: binding
T2 construct: Avi-KRAS G12D (1-169)
T2 sequence (P01116 1-169 isoform P01116-2 G12D): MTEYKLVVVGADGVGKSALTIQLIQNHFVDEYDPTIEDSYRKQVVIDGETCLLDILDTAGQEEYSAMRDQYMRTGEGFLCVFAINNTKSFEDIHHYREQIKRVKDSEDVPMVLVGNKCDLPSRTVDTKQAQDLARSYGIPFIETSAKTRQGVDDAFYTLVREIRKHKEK
Summary of the method: as §1

[3] = system: SW620 cells (KRAS G12V); test: Cell-based pERK HTRF assay in SW620 cell (Biological Example 4); conditions: pERK HTRF
Description: A pERK assay (Perkin Elmer) was used to determine the effectiveness of compounds in disrupting KRAS G12V protein/effector signaling in cells.
On Day 1, cells (SW620) were seeded into 96-well plates at 3×10^4 cells/well in 80 μL complete growth media (RPMI, 10% FBS).
On Day 2, cells were treated with compounds at 0.25% DMSO. The source plate was created with compounds diluted in media at 5-fold the final assay concentration. The compounds were run in a 9-point concentration curve starting at 1 μM, with a half-log dilution between concentrations. Twenty μL was transferred onto the cell plates (final volume in wells was 100 μL). Plates were harvested after 4 h incubation by aspirating media and adding kit-supplied 1x supplemented lysis buffer to all wells (50 μL per well). Plates were then placed on a plate shaker and incubated at 850 rpm for an additional 30 min.
Antibody mixture solution was prepared by diluting aliquoted d2 and Eu Cryptate antibodies 1:20 in kit supplied detection buffer and mixing the diluted antibodies solutions (1:1 v:v).
Samples were homogenized by pipetting up and down and then transferred (16 μL of cell lysates) from the 96-well cell culture plate to two wells of the HTRF 384-well detection plate containing the antibody solution. Plates were centrifuged (524 g for Imin) and allowed to incubate between 4 and 24 h at room temperature. […] Plates were centrifuged again (524 g for 1 min), then analyzed on the En Vision plate reader using the following settings: Excitation 320 nm, Bandwidth 75 nm; Emission 615 nm, Bandwidth 85 nm; Gain 100%; Flashes 100; Lag 60 μs.

[4] = target: T3, Avi-KRAS WT (1-169) GppNHp/RAF1 RBD-3xFLAG (52-151) (Homo sapiens, UniProt P01116); test: Raf1-KRAS WT-GppNHP disruption HTRF assay (Biological Example 1); format: binding
T3 construct: Avi-KRAS WT (1-169)
T3 sequence (P01116 1-169 isoform P01116-2): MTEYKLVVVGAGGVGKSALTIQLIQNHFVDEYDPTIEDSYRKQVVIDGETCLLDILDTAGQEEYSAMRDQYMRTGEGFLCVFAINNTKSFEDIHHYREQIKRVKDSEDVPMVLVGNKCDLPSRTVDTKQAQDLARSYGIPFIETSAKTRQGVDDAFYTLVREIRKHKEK
Summary of the method: as §1

[5] = system: GP2d cells (KRAS G12D); test: Cell-based pERK HTRF assay in GP2d cell (Biological Example 2); conditions: GP2d (KRAS G12D) cells, pERK HTRF
Summary of the method: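 Cells grown in DMEM with 10% FBS were exposed to compound for 60 min at 0.25% DMSO, using a 9-point half-log series starting at 1 μM or 100 nM. Lysates were then mixed with d2 and Eu cryptate antibodies for 4–24 h at room temperature, and pERK was read by HTRF.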

[6] = target: T4, Avi-KRAS G12V (1-169) GppNHp/RAF1 RBD-3xFLAG (52-151) (Homo sapiens, UniProt P01116, G12V); test: Raf1-KRAS G12V-GppNHP disruption HTRF assay (Biological Example 1); format: binding
T4 construct: Avi-KRAS G12V (1-169)
T4 sequence (P01116 1-169 isoform P01116-2 G12V): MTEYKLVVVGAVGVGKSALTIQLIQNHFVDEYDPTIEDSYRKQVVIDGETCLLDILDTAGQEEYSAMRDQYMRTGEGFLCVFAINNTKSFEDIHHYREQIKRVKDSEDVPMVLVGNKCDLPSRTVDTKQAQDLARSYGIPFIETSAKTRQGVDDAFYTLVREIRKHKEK
Summary of the method: as §1

[7] = KRAS G12R, GppNHp-loaded, class symbols
[8] = KRAS G12D, GppNHp-loaded, class symbols
[9] = Homo sapiens, SW-620, SW620 (KRAS G12V) cells, class symbols
[10] = KRAS WT, GppNHp-loaded, class symbols
[11] = KRAS G12V, GppNHp-loaded, class symbols
[12] = Homo sapiens, SW-620, SW620 (KRAS G12V) cells

T1 sequence (P01116 1-169 isoform P01116-2 G12R): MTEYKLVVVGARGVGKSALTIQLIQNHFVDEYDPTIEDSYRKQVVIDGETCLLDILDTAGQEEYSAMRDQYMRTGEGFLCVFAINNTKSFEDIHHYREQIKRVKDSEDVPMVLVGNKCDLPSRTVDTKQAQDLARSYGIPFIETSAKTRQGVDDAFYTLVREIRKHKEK

| pIC50 [1, 7] | pIC50 [2, 8] | pIC50 [3, 9] | pIC50 [4, 10] | pIC50 ([5]; GP2d, class symbols) | pIC50 [6, 11] | pIC50 [3, 12] | pIC50 ([5]; GP2d) | pIC50 ([1]; KRAS G12R-GppNHp/RAF1 RBD HTRF) | pIC50 ([2]; KRAS G12D-GppNHp/RAF1 RBD HTRF) | pIC50 ([4]; KRAS WT-GppNHp/RAF1 RBD HTRF) | pIC50 ([6]; KRAS G12V-GppNHp/RAF1 RBD HTRF) | SMILES | also measured |
| --- | --- | --- | --- | --- | --- | --- | --- | --- | --- | --- | --- | --- | --- |
| > 7.00 | > 7.00 | > 7.00 | > 7.00 | > 7.00 | > 7.00 | – | – | – | – | – | – | CCN(c1nc(OC[C@@]23CCCN2C[C@H](F)C3)nc2c(F)c(-c3ccc(F)c4sc(N)c(C#N)c34)c(C(F)(F)F)cc12)[C@@H]1CCN(C(=O)[C@H]2CCO2)[C@@H]1C (atropisomer, axis not shown) [Compound 788] | – |
| > 7.00 | > 7.00 | > 7.00 | > 7.00 | > 7.00 | > 7.00 | – | – | – | – | – | – | CCN(c1nc(OC[C@@]23CCCN2C[C@H](F)C3)nc2c(F)c(-c3ccc(F)c4sc(N)c(C#N)c34)c(C(F)(F)F)cc12)[C@@H]1CCN(C(=O)[C@@H](C)OC)[C@@H]1C (atropisomer, axis not shown) [Compound 807] | – |
| 6.00 to 7.00 | > 7.00 | > 7.00 | 6.00 to 7.00 | > 7.00 | 6.00 to 7.00 | – | – | – | – | – | – | CN(c1nc(OC[C@@]23CCCN2C[C@H](F)C3)nc2c(F)c(-c3ccc(F)c4sc(N)c(C#N)c34)c(C(F)(F)F)cc12)[C@H]1CCN(C(=O)[C@@H]2CC2(F)F)C1 (atropisomer, axis not shown) [Compound 785] | – |

Further lines, the molecule ahead of its results:

| SMILES | pIC50 [1, 7] | pIC50 [2, 8] | pIC50 [3, 9] | pIC50 [4, 10] | pIC50 ([5]; GP2d, class symbols) | pIC50 [6, 11] | pIC50 [3, 12] | pIC50 ([5]; GP2d) | pIC50 ([1]; KRAS G12R-GppNHp/RAF1 RBD HTRF) | pIC50 ([2]; KRAS G12D-GppNHp/RAF1 RBD HTRF) | pIC50 ([4]; KRAS WT-GppNHp/RAF1 RBD HTRF) | pIC50 ([6]; KRAS G12V-GppNHp/RAF1 RBD HTRF) | also measured |
| --- | --- | --- | --- | --- | --- | --- | --- | --- | --- | --- | --- | --- | --- |
| CN(CCS(C)(=O)=O)c1nc(OC[C@@]23CCCN2C[C@H](F)C3)nc2c(F)c(-c3ccc(F)c4sc(N)c(C#N)c34)c(C(F)(F)F)cc12 [Compound 217] | – | – | – | – | – | – | > 7.00 | > 7.00 | – | – | – | – | pIC50 ([1]; KRAS G12R, GppNHp-loaded, Table 11): 6.00 to 7.00; pIC50 ([2]; KRAS G12D, GppNHp-loaded, Table 11): 6.00 to 7.00; pIC50 ([4]; KRAS WT, GppNHp-loaded, Table 11): 6.00 to 7.00; pIC50 ([6]; KRAS G12V, GppNHp-loaded, Table 11): 6.00 to 7.00 |
| CCC(=O)N1CC[C@@H]2[C@H]1CN2c1nc(OC[C@@]23CCCN2C[C@H](F)C3)nc2c(F)c(-c3ccc(F)c4sc(N)c(C#N)c34)c(C(F)(F)F)cc12 [Compound 515] | – | – | – | – | – | – | > 7.00 | > 7.00 | 6.00 to 7.00 | 6.00 to 7.00 | 6.00 to 7.00 | 6.00 to 7.00 | – |
| CCN(c1nc(OC[C@@]23CCCN2C[C@H](F)C3)nc2c(F)c(-c3ccc(F)c4sc(N)c(C#N)c34)c(C(F)(F)F)cc12)[C@H]1CCS(=O)(=O)C1 (atropisomer, axis not shown) [Compound 491] | – | – | – | – | – | – | – | – | < 5.00 | 5.00 to 6.00 | 5.00 to 6.00 | < 5.00 | pIC50 ([3]; SW620 (KRAS G12V) cells): 6.00 to 7.00; pIC50 [5]: 6.00 to 7.00 |
| CN(C)C(=O)c1nc2n(n1)CCN(c1nc(OC[C@@]34CCCN3C[C@H](F)C4)nc3c(F)c(-c4ccc(F)c5sc(N)c(C#N)c45)c(C(F)(F)F)cc13)C2 [Compound 356] | – | – | – | – | – | – | > 7.00 | > 7.00 | 6.00 to 7.00 | > 7.00 | 6.00 to 7.00 | 6.00 to 7.00 | – |
| Cc1nc(OC[C@@]23CCCN2C[C@H](F)C3)nc2c(F)c(-c3ccc(F)c4sc(N)c(C#N)c34)c(C(F)(F)F)cc12 [Compound 318, 2-amino-7-fluoro-4-[8-fluoro-2-[[(2R,8S)-2-fluoro-1,2,3,5,6,7-hexahydropyrrolizin-8-yl]methoxy]-4-methyl-6-(trifluoromethyl)quinazolin-7-yl]benzothiophene-3-carbonitrile] | – | – | – | – | – | – | 6.00 to 7.00 | > 7.00 | 6.00 to 7.00 | 6.00 to 7.00 | 5.00 to 6.00 | 5.00 to 6.00 | – |
| N#Cc1c(N)sc2c(F)ccc(-c3c(C(F)(F)F)cc4c(N5CC6COC(C6)C5)nc(OC[C@@]56CCCN5C[C@H](F)C6)nc4c3F)c12 (stereo partly drawn) [Compound 292] | – | – | – | – | – | – | > 7.00 | > 7.00 | 6.00 to 7.00 | 6.00 to 7.00 | 6.00 to 7.00 | 5.00 to 6.00 | – |
| CC(C)C(=O)N1CC[C@@H]2[C@H]1CN2c1nc(OC[C@@]23CCCN2C[C@H](F)C3)nc2c(F)c(-c3ccc(F)c4sc(N)c(C#N)c34)c(C(F)(F)F)cc12 [Compound 536] | – | – | – | – | – | – | > 7.00 | > 7.00 | 5.00 to 6.00 | 5.00 to 6.00 | 5.00 to 6.00 | 5.00 to 6.00 | – |
